The data set deals with mice. Put plainly: Mouse scratch test (irritation/pain at the injection site). It counts as in vivo. How it is done: A scratch test was conducted in mice to measure the response to the sensation of irritation, i.e., the pain associated with an injection. Formulations were administered subcutaneously at a dose of 5 ml/kg to groups of mice (10/group) weighing 20 to 40 g each. The number of times that each mouse scratched the injection site was then counted for exactly five minutes.

For the compound `CC[C@H]1OC(=O)[C@H](C)[C@@H](O[C@H]2C[C@@](C)(OC)[C@@H](O)[C@H](C)O2)[C@H](C)[C@@H](O[C@@H]2O[C@H](C)C[C@H](N(C)C)[C@H]2O)[C@](C)(OC)C[C@@H](C)C(=O)[C@H](C)[C@@H](O)[C@]1(C)O` [Clarithromycin Lactobionate, Clarithromycin lactobionate], under “Table I, subcutaneous, 5 ml/kg, mice (10/group), scratches of injection site counted for five minutes, 5 mg/ml in clarithromycin”, the “No. of Scratches” value was 22.0 ± 7.2. The “NO. OF SCRATCHES” value (Table II, mouse scratch test, all solutions 5 mg/ml clarithromycin, pH as shown in formulation) came out at 15.1 ± 4.4.

The record behind these values is patent EP0426029A1, “Injectable formulation for lipophilic drugs” (ABBOTT LABORATORIES, priority 1989, dated 1991).
